Laboratory results taken from patent US10407430B2, “Janus kinase 1 selective inhibitor and pharmaceutical use thereof” (YANG JI CHEMICAL CO., LTD., priority 2015, dated 2019).

Key:
Type in all cases: biochemical
Human JAK1 = biological target: T1, Human JAK1 (Homo sapiens, UniProt P23458); experiment: In-vitro kinase inhibition test, JAK1; conditions: for inhibition at 1 µM: compound at 1 uM, read-out: JAK1 kinase-phosphorylation inhibitory level (% inhibition); for JAK1/JAK2: ratio of % inhibition of JAK1 to JAK2 at 1 uM
T1 construct: purchased Millipore, Germany

Human JAK2 = biological target: T2, Human JAK2 (Homo sapiens, UniProt O60674); experiment: In-vitro kinase inhibition test, JAK2; conditions: for inhibition at 1 µM: compound at 1 uM, read-out: JAK2 kinase-phosphorylation inhibitory level (% inhibition)
T2 construct: purchased Millipore, Germany
Procedure: (§1) Human-derived JAK1, JAK2, JAK3 and TYK2 (Millipore, Germany) were used as kinases. Each kinase was diluted with an appropriate buffer as described below, and then mixed with reaction reagents.
(§2) 3-morpholinopropane-1-sulfonic acid (MOPS) and EDTA were dissolved in deionized water at a concentration of 20 mM and 1 mM, respectively, and then 100 μL of β-mercaptoethanol, 10 μL of Brij-35™, 5 mL of glycerol, and 100 mg of bovine serum albumin (BSA), each per 100 mL of the solution, were added to the solution, thereby preparing a dilution buffer for JAK2, JAK3, and TYK2.
(§3) Each compound was dissolved in a 100%-DMSO solution at a concentration of about 50 μM. This prepared solution was reacted with reaction reagents in each well of a 96-well plate until a final concentration of the compound reached 1 μM. A detailed experimental method for each kinase is as follows.
(§4) After reaction for about 40 minutes at room temperature, the reaction was stopped by adding 5 uL of a 3% (v/v) phosphoric acid solution.
(§5) The inhibitory levels (% inhibition) represent a percentage of reduction in phosphorylation activity in each test group with respect to the phosphorylation activity of a corresponding kinase in a negative control group lacking any of the compounds synthesized in the examples. % inhibition=[(Scintillation value of Test compound non-treatment group−Scintillation value of Test compound treatment group)/(Scintillation value of Test compound non-treatment group)]×100

Human JAK3 = biological target: T3, Human JAK3 (Homo sapiens, UniProt P52333); experiment: In-vitro kinase inhibition test, JAK3; conditions: for inhibition at 1 µM: compound at 1 uM, read-out: JAK3 kinase-phosphorylation inhibitory level (% inhibition)
T3 construct: purchased Millipore, Germany
T3 sequence (P52333 1-1124): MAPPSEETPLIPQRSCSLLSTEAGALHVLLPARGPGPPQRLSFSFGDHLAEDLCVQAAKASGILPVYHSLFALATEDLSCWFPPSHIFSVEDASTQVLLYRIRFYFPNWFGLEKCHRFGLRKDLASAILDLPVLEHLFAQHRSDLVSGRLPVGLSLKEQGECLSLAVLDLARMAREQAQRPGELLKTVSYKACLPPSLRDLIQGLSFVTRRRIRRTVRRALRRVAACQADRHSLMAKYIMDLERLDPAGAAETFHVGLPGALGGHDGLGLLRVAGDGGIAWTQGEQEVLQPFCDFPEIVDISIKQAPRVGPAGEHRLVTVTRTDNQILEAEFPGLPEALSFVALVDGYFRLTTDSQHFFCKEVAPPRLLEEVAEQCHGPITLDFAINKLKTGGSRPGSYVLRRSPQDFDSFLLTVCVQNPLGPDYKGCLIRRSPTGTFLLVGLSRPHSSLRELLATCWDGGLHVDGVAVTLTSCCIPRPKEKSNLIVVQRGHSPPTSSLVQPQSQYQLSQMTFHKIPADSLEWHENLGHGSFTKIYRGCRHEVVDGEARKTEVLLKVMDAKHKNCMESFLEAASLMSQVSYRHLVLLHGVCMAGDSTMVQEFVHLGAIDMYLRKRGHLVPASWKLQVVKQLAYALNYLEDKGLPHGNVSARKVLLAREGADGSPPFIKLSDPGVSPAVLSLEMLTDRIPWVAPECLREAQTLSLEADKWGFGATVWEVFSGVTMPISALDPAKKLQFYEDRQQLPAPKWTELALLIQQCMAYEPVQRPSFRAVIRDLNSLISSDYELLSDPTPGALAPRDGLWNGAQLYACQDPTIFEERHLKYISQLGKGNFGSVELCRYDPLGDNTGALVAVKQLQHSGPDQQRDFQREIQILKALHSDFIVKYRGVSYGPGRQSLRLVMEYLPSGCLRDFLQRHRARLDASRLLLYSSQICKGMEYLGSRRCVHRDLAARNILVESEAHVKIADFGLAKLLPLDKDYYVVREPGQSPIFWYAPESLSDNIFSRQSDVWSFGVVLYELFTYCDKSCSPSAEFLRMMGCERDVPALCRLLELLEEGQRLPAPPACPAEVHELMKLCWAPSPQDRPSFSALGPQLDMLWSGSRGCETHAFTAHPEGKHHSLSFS

Human TYK2 = biological target: T4, Human TYK2 (Homo sapiens, UniProt P29597); experiment: In-vitro kinase inhibition test, TYK2; conditions: for inhibition at 1 µM: compound at 1 uM, read-out: TYK2 kinase-phosphorylation inhibitory level (% inhibition)
T4 construct: purchased Millipore, Germany
T4 sequence (P29597 whole entry): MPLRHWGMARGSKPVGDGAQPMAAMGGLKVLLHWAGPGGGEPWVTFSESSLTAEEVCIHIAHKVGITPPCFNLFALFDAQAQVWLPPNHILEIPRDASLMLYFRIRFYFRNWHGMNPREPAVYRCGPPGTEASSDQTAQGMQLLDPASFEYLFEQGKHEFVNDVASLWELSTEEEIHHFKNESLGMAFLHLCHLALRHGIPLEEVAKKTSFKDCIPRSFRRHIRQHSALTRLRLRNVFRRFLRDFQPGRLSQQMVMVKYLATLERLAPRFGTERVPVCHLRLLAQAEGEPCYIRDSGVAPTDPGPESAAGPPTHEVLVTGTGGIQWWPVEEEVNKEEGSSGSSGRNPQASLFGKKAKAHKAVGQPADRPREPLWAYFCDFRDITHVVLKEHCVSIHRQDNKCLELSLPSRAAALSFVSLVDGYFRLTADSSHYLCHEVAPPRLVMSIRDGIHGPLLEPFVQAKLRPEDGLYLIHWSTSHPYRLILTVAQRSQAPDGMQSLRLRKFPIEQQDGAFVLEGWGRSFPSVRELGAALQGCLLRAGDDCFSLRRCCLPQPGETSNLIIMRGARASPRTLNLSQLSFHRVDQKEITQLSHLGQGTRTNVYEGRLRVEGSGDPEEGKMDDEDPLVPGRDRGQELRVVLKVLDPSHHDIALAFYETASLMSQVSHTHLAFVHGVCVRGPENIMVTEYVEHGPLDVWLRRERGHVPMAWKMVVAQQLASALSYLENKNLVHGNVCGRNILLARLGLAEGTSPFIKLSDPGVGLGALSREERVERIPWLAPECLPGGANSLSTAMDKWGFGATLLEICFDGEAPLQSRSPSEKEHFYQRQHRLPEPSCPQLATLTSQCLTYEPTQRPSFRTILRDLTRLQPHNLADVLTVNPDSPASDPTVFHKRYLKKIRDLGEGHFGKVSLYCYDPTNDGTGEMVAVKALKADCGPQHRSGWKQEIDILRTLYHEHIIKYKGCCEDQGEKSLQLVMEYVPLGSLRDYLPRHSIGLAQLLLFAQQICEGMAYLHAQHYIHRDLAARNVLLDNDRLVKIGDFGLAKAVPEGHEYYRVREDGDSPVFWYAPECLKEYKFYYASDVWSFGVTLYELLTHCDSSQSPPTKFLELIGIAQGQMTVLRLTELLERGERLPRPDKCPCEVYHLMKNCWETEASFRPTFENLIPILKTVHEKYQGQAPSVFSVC
Procedure: as §1, §2, §3, §4, §5

T2 sequence (O60674 whole entry): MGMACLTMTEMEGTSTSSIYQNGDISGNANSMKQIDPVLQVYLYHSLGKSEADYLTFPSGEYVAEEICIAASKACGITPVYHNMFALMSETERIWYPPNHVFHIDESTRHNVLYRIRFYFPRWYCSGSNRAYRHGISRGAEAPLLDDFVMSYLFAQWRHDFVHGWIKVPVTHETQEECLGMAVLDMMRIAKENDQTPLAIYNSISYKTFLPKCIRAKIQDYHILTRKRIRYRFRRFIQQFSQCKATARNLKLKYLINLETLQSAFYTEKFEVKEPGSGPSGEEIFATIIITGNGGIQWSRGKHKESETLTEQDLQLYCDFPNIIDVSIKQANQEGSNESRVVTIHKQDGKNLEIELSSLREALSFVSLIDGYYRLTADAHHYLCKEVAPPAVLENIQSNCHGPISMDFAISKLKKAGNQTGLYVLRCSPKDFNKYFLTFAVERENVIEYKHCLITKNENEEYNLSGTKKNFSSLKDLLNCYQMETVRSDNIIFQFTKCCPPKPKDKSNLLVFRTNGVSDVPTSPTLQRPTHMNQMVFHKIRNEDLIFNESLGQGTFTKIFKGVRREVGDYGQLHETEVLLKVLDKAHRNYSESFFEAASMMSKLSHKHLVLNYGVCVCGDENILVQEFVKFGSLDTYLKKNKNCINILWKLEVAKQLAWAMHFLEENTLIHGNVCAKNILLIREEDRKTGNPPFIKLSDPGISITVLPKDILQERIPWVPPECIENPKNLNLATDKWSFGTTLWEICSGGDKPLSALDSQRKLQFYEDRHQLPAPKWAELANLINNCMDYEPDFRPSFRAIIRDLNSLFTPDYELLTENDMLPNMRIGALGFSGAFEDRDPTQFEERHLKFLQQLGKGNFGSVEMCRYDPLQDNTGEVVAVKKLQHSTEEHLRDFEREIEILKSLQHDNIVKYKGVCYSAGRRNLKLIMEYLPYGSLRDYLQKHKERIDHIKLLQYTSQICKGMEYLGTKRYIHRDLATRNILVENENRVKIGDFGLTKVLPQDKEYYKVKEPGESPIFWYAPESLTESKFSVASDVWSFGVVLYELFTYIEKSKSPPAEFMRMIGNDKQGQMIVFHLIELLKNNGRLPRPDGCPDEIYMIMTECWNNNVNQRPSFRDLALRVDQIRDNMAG
T1 sequence (P23458 whole entry): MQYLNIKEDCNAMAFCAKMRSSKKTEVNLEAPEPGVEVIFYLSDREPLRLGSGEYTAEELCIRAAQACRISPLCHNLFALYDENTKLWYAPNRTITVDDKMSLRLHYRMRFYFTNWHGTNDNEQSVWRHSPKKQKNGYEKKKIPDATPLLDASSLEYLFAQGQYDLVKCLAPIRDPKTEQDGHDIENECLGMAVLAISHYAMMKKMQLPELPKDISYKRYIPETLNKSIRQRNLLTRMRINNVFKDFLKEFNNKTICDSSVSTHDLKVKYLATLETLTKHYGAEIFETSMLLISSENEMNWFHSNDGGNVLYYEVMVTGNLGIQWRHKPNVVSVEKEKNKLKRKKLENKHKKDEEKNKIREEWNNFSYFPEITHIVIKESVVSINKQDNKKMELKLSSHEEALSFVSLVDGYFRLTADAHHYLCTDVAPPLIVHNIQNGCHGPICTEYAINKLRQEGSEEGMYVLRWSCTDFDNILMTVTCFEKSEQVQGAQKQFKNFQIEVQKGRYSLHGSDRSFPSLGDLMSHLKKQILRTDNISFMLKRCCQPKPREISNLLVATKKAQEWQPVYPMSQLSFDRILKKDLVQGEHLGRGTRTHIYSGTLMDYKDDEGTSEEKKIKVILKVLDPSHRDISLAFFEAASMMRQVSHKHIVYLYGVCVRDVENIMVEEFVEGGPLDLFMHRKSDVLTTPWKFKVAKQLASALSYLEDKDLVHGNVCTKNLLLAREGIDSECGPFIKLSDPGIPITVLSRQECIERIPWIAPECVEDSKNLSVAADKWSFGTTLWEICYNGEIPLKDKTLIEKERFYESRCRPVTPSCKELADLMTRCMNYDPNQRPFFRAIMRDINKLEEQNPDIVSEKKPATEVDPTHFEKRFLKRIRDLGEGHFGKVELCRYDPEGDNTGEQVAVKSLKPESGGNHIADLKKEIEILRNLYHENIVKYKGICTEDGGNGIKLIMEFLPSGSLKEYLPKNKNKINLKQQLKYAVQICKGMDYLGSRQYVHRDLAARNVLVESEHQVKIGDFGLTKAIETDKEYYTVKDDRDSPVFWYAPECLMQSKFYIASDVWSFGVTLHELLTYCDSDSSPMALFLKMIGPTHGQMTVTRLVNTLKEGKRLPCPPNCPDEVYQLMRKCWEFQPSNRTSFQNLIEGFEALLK

inhibition at 1 µM (Human JAK1) [%]	JAK1/JAK2 (Human JAK1)	inhibition at 1 µM (Human JAK2) [%]	inhibition at 1 µM (Human JAK3) [%]	inhibition at 1 µM (Human TYK2) [%]	IC50 (Human JAK1) [nM]	IC50 (Human JAK2) [nM]	IC50 (Human JAK3) [nM]	IC50 (Human TYK2) [nM]	SMILES
93	1.94	48	21	67					CN(c1ncnc2[nH]ccc12)[C@@H]1CCN(S(=O)(=O)c2ccccc2[N+](=O)[O-])C1 [Example 21, (R)—N-methyl-N-(1-((2-nitrophenyl)sulfonyl)pyrrolidine-3-yl)-7H-pyrrolo[2,3-d]pyrimidine-4-amine]
100	1.03	97	74	99					CN(c1ncnc2[nH]ccc12)[C@@H]1CCN(S(=O)(=O)c2cccc([N+](=O)[O-])c2)C1 [Example 22, (R)—N-methyl-N-(1-((3-nitrophenyl)sulfonyl)pyrrolidine-3-yl)-7H-pyrrolo[2,3-d]pyrimidine-4-amine]
100	1.19	84	31	94					CN(c1ncnc2[nH]ccc12)[C@@H]1CCN(S(=O)(=O)c2ccc([N+](=O)[O-])cc2)C1 [Example 23, (R)—N-methyl-N-(1-((4-nitrophenyl)sulfonyl)pyrrolidine-3-yl)-7H-pyrrolo[2,3-d]pyrimidine-4-amine]
95	1.79	53	8	87					Cc1cccc(S(=O)(=O)N2CC[C@@H](N(C)c3ncnc4[nH]ccc34)C2)c1 [Example 24, (R)—N-methyl-N-(1-(m-tolylsulfonyl)pyrrolidine-3-yl)-7H-pyrrolo[2,3-d]pyrimidine-4-amine]
97	2.31	42	10	68					Cc1ccc(S(=O)(=O)N2CC[C@@H](N(C)c3ncnc4[nH]ccc34)C2)cc1 [Example 25, (R)—N-methyl-N-(1-tosylpyrrolidine-3-yl)-7H-pyrrolo[2,3-d]pyrimidine-4-amine]
98	2.23	44	10	71					COc1ccc(S(=O)(=O)N2CC[C@@H](N(C)c3ncnc4[nH]ccc34)C2)cc1 [Example 26, (R)—N-(1-((4-methoxyphenyl)sulfonyl)pyrrolidine-3-yl)-N-methyl-7H-pyrrolo[2,3-d]pyrimidine-4-amine]
96	4.57	21	4	56					CN(c1ncnc2[nH]ccc12)[C@@H]1CCN(S(=O)(=O)c2ccc(C(F)(F)F)cc2)C1 [Example 27, (R)—N-methyl-N-(1-((4-(trifluoromethyl)phenyl)sulfonyl)pyrrolidine-3-yl)-7H-pyrrolo[2,3-d]pyrimidine-4-amine]
99	1.74	57	23	82					CN(c1ncnc2[nH]ccc12)[C@@H]1CCN(S(=O)(=O)c2ccc3ccccc3c2)C1 [Example 28, (R)—N-methyl-N-(1-(naphthalene-2-ylsulfonyl)pyrrolidine-3-yl)-7H-pyrrolo[2,3-d]pyrimidine-4-amine]
91	4.33	21	10	65					CN(c1ncnc2[nH]ccc12)[C@@H]1CCN(S(=O)(=O)N2CCCCC2)C1 [Example 29, (R)—N-methyl-N-(1-(piperidine-1-ylsulfonyl)pyrrolidine-3-yl)-7H-pyrrolo[2,3-d]pyrimidine-4-amine]
87	14.50	6	13	44					CN(c1ncnc2[nH]ccc12)[C@@H]1CCN(S(=O)(=O)N2CCOCC2)C1 [Example 30, (R)—N-methyl-N-(1-(morpholinosulfonyl)pyrrolidine-3-yl)-7H-pyrrolo[2,3-d]pyrimidine-4-amine]
67	2.31	29	3	30					N#Cc1cccc(S(=O)(=O)N2CC[C@@H](Nc3ncnc4[nH]ccc34)C2)c1 [Example 32, (R)-3-((3-((7H-pyrrolo[2,3-d]pyrimidine-4-yl)amino)pyrrolidine-1-yl)sulfonyl)benzonitrile]
97	1.07	91	63	94					CCN(c1ncnc2[nH]ccc12)[C@@H]1CCN(C(=O)CC#N)C1 [Example 33, (R)-3-(3-(ethyl(7H-pyrrolo[2,3-d]pyrimidine-4-yl)amino)pyrrolidine-1-yl)-3-oxopropanenitrile]
97	1.13	86	19	92					CCN(c1ncnc2[nH]ccc12)[C@@H]1CCN(S(=O)(=O)c2cccc(C#N)c2)C1 [Example 34, (R)-3-((3-(ethyl(7H-pyrrolo[2,3-d]pyrimidine-4-yl)amino)pyrrolidine-1-yl)sulfonyl)benzonitrile]
88	2.59	34	14	37					N#CCC(=O)N1CC[C@@H](N(CC2CC2)c2ncnc3[nH]ccc23)C1 [Example 35, (R)-3-(3-((cyclopropylmethyl)(7H-pyrrolo[2,3-d]pyrimidine-4-yl)amino)pyrrolidine-1-yl)-3-oxopropanenitrile]
87	2.18	40	10	57					N#Cc1cccc(S(=O)(=O)N2CC[C@@H](N(CC3CC3)c3ncnc4[nH]ccc34)C2)c1 [Example 36, (R)-3-((3-((cyclopropylmethyl)(7H-pyrrolo[2,3-d]pyrimidine-4-yl)amino)pyrrolidine-1-yl)sulfonyl)benzonitrile]
49	49.00	1	8	-3					CN(c1ncnc2[nH]ccc12)C1CCN(C(=O)CC#N)CC1 [Example 37, 3-(4-(methyl(7H-pyrrolo[2,3-d]pyrimidine-4-yl)amino)piperidine-1-yl)-3-oxopropanenitrile]
97	1.03	94	77	97	4.2	19	147	18.8	CN(c1ncnc2[nH]ccc12)C1CCN(S(=O)(=O)c2ccccc2)CC1 [Example 38, N-methyl-N-(1-(phenylsulfonyl)piperidine-4-yl)-7H-pyrrolo[2,3-d]pyrimidine-4-amine]
87	1.47	59	1	69					CN(c1ncnc2[nH]ccc12)C1CCN(S(=O)(=O)c2cccc(C#N)c2)CC1 [Example 39, 3-((4-(methyl(7H-pyrrolo[2,3-d]pyrimidine-4-yl)amino)piperidine-1-yl)sulfonyl)benzonitrile]
99	1.19	83	81	93					CN(c1ncnc2[nH]ccc12)[C@@H]1CCCN(C(=O)CC#N)C1 [Example 40, (R)-3-(3-(methyl(7H-pyrrolo[2,3-d]pyrimidine-4-yl)amino)piperidine-1-yl)-3-oxopropanenitrile]
92	1.44	64	39	79					CN(c1ncnc2[nH]ccc12)[C@@H]1CCCN(S(=O)(=O)c2cccc(C#N)c2)C1 [Example 41, (R)-3-((3-(methyl(7H-pyrrolo[2,3-d]pyrimidine-4-yl)amino)piperidine-1-yl)sulfonyl)benzonitrile]
